One assay concerns the target Ghrelin receptor (Homo sapiens, UniProt Q92847). In words: Receptor Selection and Amplification Technology (R-SAT) assay. The assay is classed as cell-based. On the set-up: expressed in transfected cells; host or cells: NIH3T3. The following applies: negative logarithm of ligand concentration causing 50% inhibition of constitutive receptor response; transfected NIH3T3 cells; '—' not defined (nd used separately); read-out: RSAT pIC50 (converted).
Sequence of Ghrelin receptor (Q92847 whole entry): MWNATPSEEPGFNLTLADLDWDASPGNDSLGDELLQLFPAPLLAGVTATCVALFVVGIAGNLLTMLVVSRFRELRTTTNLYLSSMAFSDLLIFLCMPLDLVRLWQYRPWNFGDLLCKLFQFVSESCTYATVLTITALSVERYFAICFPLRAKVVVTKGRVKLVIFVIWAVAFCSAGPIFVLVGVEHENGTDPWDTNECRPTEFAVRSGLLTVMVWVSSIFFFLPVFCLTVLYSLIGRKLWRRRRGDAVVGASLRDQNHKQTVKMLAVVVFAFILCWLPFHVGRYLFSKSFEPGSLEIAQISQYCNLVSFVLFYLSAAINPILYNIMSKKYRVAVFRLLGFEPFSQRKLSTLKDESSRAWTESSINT
In the case of `CC(=O)c1cn(CC(C)CN2CCC(c3nc4ccccc4s3)CC2)c2ccccc12` (centres unmarked), the IC50 is 2.51 µM.

Take `CC(=O)c1cn(CCCN2CCC(Oc3ccc(F)cc3)CC2)c2cc(Br)ccc12`: the IC50 is 2.51 µM.

As for `CCC(=O)c1cn(CCCN2CCN(C(C)c3ccccc3)CC2)c2ccccc12` (centres unmarked), the IC50 was 2.51 µM.

With `CC(=O)c1cn(CCN2C3CCC2CC(O)(c2ccc(F)cc2)C3)c2ccccc12` (centres unmarked), the IC50 is 2.51 µM.

As for `CC(=O)CCc1cn(CCCN2CCC(c3nc4ccccc4s3)CC2)c2ccccc12`, the IC50 is 2.51 µM.

For the molecule `COc1ccc2[nH]c3c(c2c1)CCN(CCCn1cc(C(=O)C(F)(F)F)c2ccccc21)C3`, the IC50 was 2.51 µM.

Consider `CC(=O)c1cn(CCCCN2C3CCC2CC(Oc2ccc(Cl)cc2)C3)c2ccccc12` (centres unmarked), for which the IC50 is 3.16 µM.

For the molecule `CC(=O)c1cn(CC(O)CN2CCC(Oc3ccccc3Cl)CC2)c2ccccc12` (centres unmarked), the IC50 is 3.16 µM.

`CCCCC1CCN(CCCn2cc(C(C)=O)c3ccc(Br)cc32)CC1`: the IC50 is 3.16 µM.

Consider `CC(=O)c1cn(CC(O)CN2CCC(Oc3ccc(Cl)cc3)CC2)c2ccccc12` (centres unmarked), for which the IC50 is 3.16 µM.

As to `CC(=O)CCc1cn(CCCN2C3CCC2CC(OCC2CC2)C3)c2ccccc12` (centres unmarked), the IC50 is 3.16 µM.

For the molecule `COc1ccc2c(C(C)=O)cn(CCCN3CCC(C(C)c4ccccc4)CC3)c2c1` (centres unmarked), the IC50 is 3.16 µM.

Regarding `O=C(c1cn(CCCN2CCC(O)(Cc3ccccc3)CC2)c2ccccc12)C(F)(F)F`, the IC50 was 3.98 µM.

Regarding `CC(=O)c1cn(CC(C)CN2CCC(Cc3ccccc3)CC2)c2ccccc12` (centres unmarked), the IC50 was 3.98 µM.

For the molecule `CC(=O)c1cn(CCCCN2CCC(Cc3ccccc3)CC2)c2ccccc12`, the IC50 is 3.98 µM.

As for `COc1ccccc1C1CCN(CCCn2cc(CCC(C)=O)c3ccccc32)CC1`, the IC50 was 5.01 µM.

Regarding `CC(=O)c1cn(CCCN2CCC(Oc3ccccc3Cl)CC2)c2cc(Br)ccc12`, the IC50 was 5.01 µM.

Consider `CC(=O)c1cn(CCCN2CCC(C(=O)c3ccccc3)CC2)c2ccccc12`, for which the IC50 was 5.01 µM.

Regarding `O=C(c1cn(CCCN2CCC(Cc3ccccc3)CC2)c2ccccc12)C(F)(F)F`, the IC50 was 6.31 µM.

With `CC(=O)c1cn(CC(O)CN2CCC(C(=O)c3ccccc3)CC2)c2ccccc12` (centres unmarked), the IC50 was 6.31 µM.

As to `CC(=O)c1cn(CCCNC2Cc3ccccc3C2)c2c(Cl)cccc12`, the IC50 is 6.31 µM.

On to `CCOC(=O)C1CCN(CCCn2cc(C(=O)CC)c3ccccc32)CC1`, for which the IC50 is 6.31 µM.

On to `COc1cccc2c(C(C)=O)cn(CCCN3CCC(S(=O)(=O)c4ccc(Cl)cc4)CC3)c12`, for which the IC50 was 10 µM.

For `CC(=O)c1cn(CCCN2C3CCC2CC(Oc2ccc(Cl)cc2)C3)c2cc(Br)ccc12` (centres unmarked), the IC50 is 10 µM.

Turning to `CC(=O)c1cn(CCCN2CCC(C(=O)c3ccccc3)CC2)c2ccc(Br)cc12`, the IC50 is 10 µM.

As to `CCCOC1CCN(CCCn2cc(CCC(C)=O)c3ccccc32)CC1`, the IC50 was 15.8 µM.

For `CCC(=O)c1cn(CCCN2CCC(C(=O)c3ccccc3)CC2)c2ccccc12`, the IC50 was 15.8 µM.

Take `COc1ccccc1C1CCN(CC(C)Cn2cc(C(C)=O)c3ccccc32)CC1` (centres unmarked): the IC50 is 15.8 µM.

Turning to `CC(=O)c1cn(CCCN2CCC(Oc3ccccc3Cl)CC2)c2ccc(Br)cc12`, the IC50 was 15.8 µM.

As for `CC(=O)c1cn(CCCN2CCC(c3nc(-c4cccnc4)no3)CC2)c2ncccc12`, the IC50 is 20 µM.

With `CCCOC1CCN(CC(O)Cn2cc(C(C)=O)c3ccccc32)CC1` (centres unmarked), the IC50 is 31.6 µM.

For the molecule `COc1ccc2c(c1)c(C(C)=O)cn2CCCN1C2CCC1CC(OCC1CC1)C2` (centres unmarked), the IC50 is 31.6 µM.

`O=C(c1cn(CCCN2C3CCC2CC(O)(c2ccc(F)cc2)C3)c2ccccc12)C(F)(F)F` (centres unmarked): the IC50 was 251 µM.

For the molecule `CC(=O)c1cn(CCCN2CCC(C(=O)c3ccccc3)CC2)c2c(Cl)cccc12`, the IC50 is 1580 µM.

Staying with this assay, now noted: percent inhibition at saturating ligand, normalized to reference ligand Substance P analog = 100%; read-out: RSAT Eff(%).
Take `CC(=O)c1cn(CC(C)CN2CCC(c3nc4ccccc4s3)CC2)c2ccccc12` (centres unmarked): the Emax is 78%.

Consider `CC(=O)c1cn(CCCN2CCC(Oc3ccc(F)cc3)CC2)c2cc(Br)ccc12`, for which the Emax was found to be 64%.

`CCC(=O)c1cn(CCCN2CCN(C(C)c3ccccc3)CC2)c2ccccc12` (centres unmarked): the Emax is 57%.

Turning to `CC(=O)c1cn(CCN2C3CCC2CC(O)(c2ccc(F)cc2)C3)c2ccccc12` (centres unmarked), the Emax was -11%.

As to `CC(=O)CCc1cn(CCCN2CCC(c3nc4ccccc4s3)CC2)c2ccccc12`, the Emax amounted to 84%.

As to `COc1ccc2[nH]c3c(c2c1)CCN(CCCn1cc(C(=O)C(F)(F)F)c2ccccc21)C3`, the Emax was determined as 106%.

For `CC(=O)c1cn(CCCCN2C3CCC2CC(Oc2ccc(Cl)cc2)C3)c2ccccc12` (centres unmarked), the Emax is 119%.

As to `CC(=O)c1cn(CC(O)CN2CCC(Oc3ccccc3Cl)CC2)c2ccccc12` (centres unmarked), the Emax worked out at 69%.

For `CCCCC1CCN(CCCn2cc(C(C)=O)c3ccc(Br)cc32)CC1`, the Emax was 93%.

As to `CC(=O)c1cn(CC(O)CN2CCC(Oc3ccc(Cl)cc3)CC2)c2ccccc12` (centres unmarked), the Emax stood at 73%.

Take `CC(=O)CCc1cn(CCCN2C3CCC2CC(OCC2CC2)C3)c2ccccc12` (centres unmarked): the Emax was 103%.

`COc1ccc2c(C(C)=O)cn(CCCN3CCC(C(C)c4ccccc4)CC3)c2c1` (centres unmarked): the Emax came to 73%.

Take `O=C(c1cn(CCCN2CCC(O)(Cc3ccccc3)CC2)c2ccccc12)C(F)(F)F`: the Emax came out at 111%.

As for `CC(=O)c1cn(CC(C)CN2CCC(Cc3ccccc3)CC2)c2ccccc12` (centres unmarked), the Emax is 121%.

For the molecule `CC(=O)c1cn(CCCCN2CCC(Cc3ccccc3)CC2)c2ccccc12`, the Emax amounted to 86%.

In the case of `COc1ccccc1C1CCN(CCCn2cc(CCC(C)=O)c3ccccc32)CC1`, the Emax was 78%.

As to `CC(=O)c1cn(CCCN2CCC(Oc3ccccc3Cl)CC2)c2cc(Br)ccc12`, the Emax was 67%.

With `CC(=O)c1cn(CCCN2CCC(C(=O)c3ccccc3)CC2)c2ccccc12`, the Emax came to 64%.

`O=C(c1cn(CCCN2CCC(Cc3ccccc3)CC2)c2ccccc12)C(F)(F)F`: the Emax was found to be 112%.

In the case of `CC(=O)c1cn(CC(O)CN2CCC(C(=O)c3ccccc3)CC2)c2ccccc12` (centres unmarked), the Emax amounted to 26%.

Turning to `CC(=O)c1cn(CCCNC2Cc3ccccc3C2)c2c(Cl)cccc12`, the Emax was 96%.

In the case of `CCOC(=O)C1CCN(CCCn2cc(C(=O)CC)c3ccccc32)CC1`, the Emax came out at 39%.

For the molecule `COc1cccc2c(C(C)=O)cn(CCCN3CCC(S(=O)(=O)c4ccc(Cl)cc4)CC3)c12`, the Emax was found to be 71%.

Consider `CC(=O)c1cn(CCCN2C3CCC2CC(Oc2ccc(Cl)cc2)C3)c2cc(Br)ccc12` (centres unmarked), for which the Emax is 74%.

In the case of `CC(=O)c1cn(CCCN2CCC(C(=O)c3ccccc3)CC2)c2ccc(Br)cc12`, the Emax came to 60%.

Take `CCCOC1CCN(CCCn2cc(CCC(C)=O)c3ccccc32)CC1`: the Emax is 75%.

Turning to `CCC(=O)c1cn(CCCN2CCC(C(=O)c3ccccc3)CC2)c2ccccc12`, the Emax was found to be 53%.

As for `COc1ccccc1C1CCN(CC(C)Cn2cc(C(C)=O)c3ccccc32)CC1` (centres unmarked), the Emax worked out at 64%.

In the case of `CC(=O)c1cn(CCCN2CCC(Oc3ccccc3Cl)CC2)c2ccc(Br)cc12`, the Emax amounted to 74%.

`CC(=O)c1cn(CCCN2CCC(c3nc(-c4cccnc4)no3)CC2)c2ncccc12`: the Emax was determined as 55%.

As to `CCCOC1CCN(CC(O)Cn2cc(C(C)=O)c3ccccc32)CC1` (centres unmarked), the Emax is 18%.

In the case of `COc1ccc2c(c1)c(C(C)=O)cn2CCCN1C2CCC1CC(OCC1CC1)C2` (centres unmarked), the Emax is 74%.

`O=C(c1cn(CCCN2C3CCC2CC(O)(c2ccc(F)cc2)C3)c2ccccc12)C(F)(F)F` (centres unmarked): the Emax worked out at 58%.

`CC(=O)c1cn(CCCN2CCC(C(=O)c3ccccc3)CC2)c2c(Cl)cccc12`: the Emax came out at 92%.

For the origin of these results see patent publication US20070213359A1 (ACADIA Pharmaceuticals Inc., priority 2005, published 2007).
